Test results as given in publication PMC2933614, “Quantitative in vitro and in vivo pharmacological profile of CE-178253, a potent and selective cannabinoid type 1 (CB1) Receptor Antagonist” (BMC Pharmacology, 2010).
Where “and” joins values, the source holds several entries; their conditions need not be identical. Equal entries are not always repeated.

Key:
[1] = biological target: Vanilloid 1 (TRPV1) receptor channel (Homo sapiens, UniProt Q8NER1); assay: TRPV1 functional assay; type: biochemical; conditions: range 9-13%, n = 2
Text: Rimonabant also binds weakly to the Vanilloid 1 (TRPV1) receptor channel. […] CE-178253 was not evaluated against TRPM8. Rimonabant has been reported to bind to TRPM8 [21].

[2] = Fast-induced re-feeding food intake; type: in vivo, rat; conditions: for Food Intake % decrease (mean ± SEM): 2 hr after return of food
Text: All animal studies were approved by the Institutional Animal Care and Use Committee. Male Sprague Dawley rats on normal chow (8 weeks old, 250-300 g on arrival, 300-350 g on test day) were obtained from Charles River. After arrival, animals were individually housed and placed on powdered rat chow. Rats were maintained on a 12-hr light/dark cycle and received food and water ad libitum. In all studies CE-178253 and veh (0.5% methyl cellulose) administration to rats and mice was by oral gavage.
For the fast-induced re-feeding assay, food was removed from the cages the afternoon preceding the test day and the rats were fasted overnight. After the overnight fast, rats were administered veh. or CE-178253. […]
Administration of CE-178253 to male S-D rats inhibited overnight fast-induced refeeding. S-D rats were fasted overnight and veh. (0.5% methylcellulose; MC) or CE-178253 was administered orally. Food was provided to the rats 30 min after dosing. Food intake was measured 30 min and 2 hr after return of food. Dose- and unbound plasma concentration-dependent decreases in cumulative FI versus veh. were observed (Figure 4A, B, Table 3) at both time points after return of food. However, the efficacy (as a percent) was greater in the 0.5-2 hr interval than in the first 0.5 interval. In contrast, FI efficacy in the dark-phase feeding was consistent throughout the first four hr (Figure 3B).

[3] = Four day chow-fed rat food intake and body weight study; type: in vivo; conditions: chow-fed rats
Description: CE-178253 was evaluated in 4-day chow-fed and DIO S-D rat studies. Male 12-16 week old S-D rats which had been maintained on regular chow were singly housed and acclimated to handling and dosing and two days of food intake were recorded to establish baseline food intake values before dosing was initiated. The animals were randomly sorted and assigned to treatment groups (n = 7-8 per group). Two studies were performed. In study 1 (age = 12 weeks) the mean starting weight of all animals was 370 ± 6 g. In study 2 (age = 16 weeks) the mean starting weight of all animals was 431 ± 11 g. Rats were dosed (2 mls/kg) with veh. or CE-178253 according to body weight. FI and BW were recorded daily.
CE-178253 was also evaluated in chow-fed rats in a 4 day FI and BW study. Rats were treated once daily with veh. (0.5% MC) or CE-178253. In the first study the same doses used in the DIO study were used to compare FI and BW efficacy. […] CE-178253 was clearly efficacious in acute food intake studies in chow-fed rats up to 12 hours (Figure 3). A comparison of 24 hr FI in chow-fed and DIO rats yielded different efficacy in response to CE-178253 treatment. The 1 mg/kg dose yielded an 8% decrease in 24 hr FI compared to veh-treated animals (p = 0.053). […] Initial and final body weights of veh-treated rats were 371 ± 7 g and 390 ± 7 g (n = 8), respectively. Initial and final body weights of 0.3 mg/kg CE-178253-treated rats were 374 ± 7 g and 388 ± 9 g, respectively. Initial and final body weights of 1 mg/kg CE-178253-treated rats were 373 ± 7 g and 390 ± 9 g, (respectively.
Based on the weak efficacy observed at the 0.3 and 1 mg/kg doses the study was repeated using higher doses of CE-178253 (Figures 7A and 7B). At 3 and 10 mg/kg (QD, p.o.) doses, statistically significant decreases in FI and BW were observed. Initial and final body weights of veh.-treated rats were 435 ± 11 g and 451 ± 12 g (n = 8), respectively, […]. Initial and final body weights of 3 mg/kg CE-178253-treated rats were 436 ± 9 g and 427 ± 9 g, respectively, a 2% decline. Initial and final body weights of 10 mg/kg CE-178253-treated rats were 435 ± 11 g and 430 ± 10 g, respectively, […]. […] Thus, as has been reported for other CB1 receptor antagonists it is likely that DIO rats are more sensitive to the anorectic and weight loss effect of CE-178253.

Indirect calorimetry = type: in vivo, rat; conditions: for Respiratory Quotient (VCO2/VO2): veh 0.85 ± 0.03; for VO2, ave, 1-3 hr (± S-D), increase in oxygen consumption: veh 3 ± 5
Description: Whole body oxygen consumption was measured using an indirect calorimeter (Oxymax from Columbus Instruments, Columbus, OH) in male Sprague Dawley rats. The rats (300-380 g body weight) were placed in the calorimetry chambers and the chambers were placed in activity monitors. All studies were conducted during the light cycle. Prior to the measurement of oxygen consumption, the rats were fed standard chow ad libitum. During the measurement of oxygen consumption, food was not provided to the rats. Basal, pre-dose oxygen consumption and ambulatory activity were measured every 10 min for 2.5 to 3 hr. At the end of the basal pre-dosing period, the chambers were opened and the animals were administered a single dose of compound (or veh.) by oral gavage. CE-178253 was prepared in 0.5% methylcellulose as veh. Oxygen consumption and ambulatory activity were measured every 10 min for an additional 1-6 hr after dosing. Resting oxygen consumption, during pre- and post-dosing, was calculated by averaging the 10-min O2 consumption values, excluding periods of high ambulatory activity (ambulatory activity count > 100) and excluding the first 5 values of the pre-dose period and the first value from the post-dose period. Change in oxygen consumption is reported as percent and is calculated by dividing the post-dosing resting oxygen consumption by the pre-dose oxygen consumption (X 100). VO2, VCO2, RER and locomotor activity were all measured.

Rat oral PK studies = type: in vivo

Chain of Vanilloid 1 (TRPV1) receptor channel (Q8NER1 whole entry, species assumed): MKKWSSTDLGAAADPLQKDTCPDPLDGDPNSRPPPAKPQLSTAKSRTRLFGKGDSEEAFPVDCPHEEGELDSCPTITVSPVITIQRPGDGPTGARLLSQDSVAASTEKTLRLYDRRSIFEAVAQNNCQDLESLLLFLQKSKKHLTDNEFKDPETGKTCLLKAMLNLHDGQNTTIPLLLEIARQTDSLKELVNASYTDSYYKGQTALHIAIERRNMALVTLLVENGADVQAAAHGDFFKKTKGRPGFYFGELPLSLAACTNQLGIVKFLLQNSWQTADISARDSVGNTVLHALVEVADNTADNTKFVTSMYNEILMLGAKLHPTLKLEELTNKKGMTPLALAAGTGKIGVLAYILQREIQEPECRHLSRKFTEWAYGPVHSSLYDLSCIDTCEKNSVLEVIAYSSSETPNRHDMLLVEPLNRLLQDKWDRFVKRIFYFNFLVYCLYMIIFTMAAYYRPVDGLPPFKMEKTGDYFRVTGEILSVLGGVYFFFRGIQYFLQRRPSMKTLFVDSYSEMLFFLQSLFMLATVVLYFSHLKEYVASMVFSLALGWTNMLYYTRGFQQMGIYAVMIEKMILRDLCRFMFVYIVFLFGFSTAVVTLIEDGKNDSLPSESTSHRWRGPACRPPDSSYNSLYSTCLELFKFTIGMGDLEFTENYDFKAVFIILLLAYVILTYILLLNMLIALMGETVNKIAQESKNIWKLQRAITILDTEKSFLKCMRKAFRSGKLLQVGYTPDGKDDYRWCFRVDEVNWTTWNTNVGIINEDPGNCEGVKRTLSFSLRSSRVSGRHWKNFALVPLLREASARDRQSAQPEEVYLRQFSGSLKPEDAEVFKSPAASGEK

Structure (SMILES): CCNC1(C(N)=O)CN(c2nc(C)nc3c(-c4ccc(Cl)cc4)c(-c4ccccc4Cl)nn23)C1 [CE-178253]
- inhibition at 10 µM [1]: 11%
- Food Intake % decrease (mean ± SEM) ([2]; 0.3 mg/kg p.o.): 6 ± 3%
- Food Intake % decrease (mean ± SEM) ([2]; 1 mg/kg p.o.): 25 ± 11%
- Food Intake % decrease (mean ± SEM) ([2]; 3 mg/kg p.o.): 62 ± 5.2 %
- Food Intake % decrease (mean ± SEM) ([2]; 10 mg/kg p.o.): 75 ± 6.2 %
- EC50 ([2]; Rattus norvegicus, […], read-out: EC50, reduction of food intake): 950 pM
- Reduction in FI ([2]; interval between dosing and return of food extended to 2 hr, at 50% receptor occupancy, p < 0.05): 27%
- Maximal FI reduction ([2]; two hr): 70%
- Final body weight ([3]; 0.3 mg/kg, 4 day, initial 374 ± 7 g): 388 ± 9 g
- Final body weight ([3]; 1 mg/kg, 4 day, initial 373 ± 7 g): 390 ± 9 g
- Decrease in 24 hr FI compared to veh-treated animals ([3]; 1 mg/kg, p = 0.053): 8%
- Decline in body weight, initial to final ([3]; 3 mg/kg QD p.o., 4 day): 2%
- Final body weight ([3]; 3 mg/kg QD p.o., 4 day, initial 436 ± 9 g): 427 ± 9 g
- Increase in body weight, initial to final ([3]; 10 mg/kg QD p.o., 4 day): 1%
- Final body weight ([3]; 10 mg/kg QD p.o., 4 day, initial 435 ± 11 g): 430 ± 10 g
- BW changes vs veh ([3]; 0.3 and 1 mg/kg dosing groups, 4 day): No statistically significant differences
- Respiratory Quotient (VCO2/VO2) (Indirect calorimetry; 1 mg/kg p.o.): 0.74 ± 0.02
- VO2, ave, 1-3 hr (± S-D), increase in oxygen consumption (Indirect calorimetry; 1 mg/kg p.o.): 28% and 28 ± 7 %
- Respiratory Quotient (VCO2/VO2) (Indirect calorimetry; 3 mg/kg p.o.): 0.75 ± 0.03
- VO2, ave, 1-3 hr (± S-D), increase in oxygen consumption (Indirect calorimetry; 3 mg/kg p.o.): 39% and 39 ± 5 %
- Respiratory quotient after dosing (Indirect calorimetry; declined from 0.85 over the first hr, dose not stated): 0.75
- Acute stimulation of energy expenditure (Indirect calorimetry; rats, dose not stated): greater than 30%
- Exposure in chow-fed versus DIO rats (Rat oral PK studies; PK studies): no differences in exposure
- Tmax (Rat oral PK studies; Sprague Dawley, rat, in vivo, oral, data not shown): 1 h
